Measured values taken from patent US11815448B2, “Method, reagent, and chip for measuring analyte concentration in specimen” (TERUMO KABUSHIKI KAISHA, priority 2018, dated 2023).
Where a name gives a salt, the structure may show the parent alone.

Test: Evaluation of maximum absorption wavelength (λmax)
Format: physicochemical
Method: A 10 mM MOPS aqueous solution is added so that the final concentrations of the respective formazan compounds are 50 to […] to prepare 100 μL of each sample. Separately, a 1M nickel ion aqueous solution is prepared. To 100 μL of the sample, 10 μL of the 1M nickel ion aqueous solution is added, and the mixture is rapidly stirred to prepare a mixed solution. The spectrum of the mixed solution is measured with a spectrophotometer (measurement cell length: 10 mm) (n=1). Based on each spectrum, the maximum absorption wavelength (λmax) (nm) of each compound in formazan is determined.
Diethyl ether was added to the reaction solution obtained in 3. above to precipitate the tetrazolium compound 1. The precipitate was centrifuged, and the supernatant was removed, followed by washing with diethyl ether. The obtained precipitate was dried in a draft to obtain tetrazolium compound 1 (120 mg, yield: 11.8% by mass). The maximum absorption wavelength (λmax) of the tetrazolium compound 1 thus obtained was measured and found to be 630 nm.

maximum absorption wavelength (λmax): 630 nm
SMILES: COc1ccc2nc(-n3nc(-c4ccc(S(=O)(=O)O)cc4S(=O)(=O)[O-])n[n+]3-c3ccc(OC)c(S(=O)(=O)O)c3)sc2c1 [tetrazolium compound 1, 2-(6-methoxybenzothiazolyl)-3-(3-sulfo-4-methoxy-phenyl)-5-(2,4-disulfophenyl)-2H-tetrazolium salt]
